Literature values in patent publication US11235084B2, “Embolic microspheres” (Varian Medical Systems, Inc., priority 2017, dated 2022).

| SMILES | reported pKa values at 25° C. |
| --- | --- |
| O=S(=O)(O)CCCNC1CCCCC1 [CAPS, 3-(cyclohexylamino)-1-propanesulfonic acid] | 10.5 |
| NCC(=O)NCC(=O)O [glycylglycine] | 8.3 |

More lines, now with the values ahead:

| reported pKa values at 25° C. | SMILES |
| --- | --- |
| 9.1 | CC(C)(CO)NCC(O)CS(=O)(=O)O (centres unmarked) [AMPSO, N-(1,1-dimethyl-2-hydroxyethyl)-3-amino-2-hydroxypropanesulfonic acid] |
| 9.4 | O=S(=O)(O)CCNC1CCCCC1 [CHES, 2-(cyclohexylamino)-1-ethanesulfonic acid] |
| 7.8 | CCN1CCOCC1 [N-ethylmorpholine] |
